# Results taken from US12384800B2, “Antitumoral compounds” (priority 2017, dated 2025).
# Tests used:
# [1] = MTMD (Maximum Tolerated Multiple Dose) determination, iv weekly x 3; type: in vivo; conditions: mice; iv/Q7d × 3
# Excerpt: Female CD-1 or Athymic Nude-Fox1 nu/nu mice (Envigo) were utilized for all experiments. […] Animals were acclimated for five days prior to being individually tattoo-identified. Animal protocols were reviewed and approved according to the regional Institutional Animal Care and Use Committees.
# Mice were randomly allocated into experimental groups and intravenously administered, once for the MTD (Maximum Tolerated Dose) determination or one administration a week during three consecutive weeks, for the MTMD (Maximum Tolerated Multiple Dose) determination study. The animals were administered with white formulation or with compound dissolved in the experimental formulation at different concentrations. The volume administered was always […]. Once administered, animals were monitored for clinical signs of systemic toxicity, changes in body weight and mortality up to 14 days after the administration.
# MDA-MB-231 tumors = test: Human breast xenograft, tumor volume
# Experimental: (§7) Female athymic nu/nu mice (Harlan Laboratories Models, S.L. Barcelona, Spain or Envigo, Spain) were utilized for all experiments. Animal were housed in individually ventilated cages Sealsafe® Plus, Techniplast S.P.A.), up to ten per cage on a 12-hour light-dark cycle at 21-23° C. and 40-60% humidity. […] Animals were acclimated for at least 5 days prior to tumor implantation with a tumor cell suspension.
# MDA-MB-231 cells were maintained in vitro at 37° C. with 5% CO2 in Dulbecco's Modified Eagle's Medium (Sigma-Aldrich, Co). Culture cells were passaged every 3 to 5 days upon reaching confluence.
# (§8) Treatment tolerability was assessed by monitoring body weight evolution, clinical signs of systemic toxicity, as well as evidences of local damage in the injection site.
# (§9) In Xenograft Studies with Other Cell Lines: • Tumor volume was calculated using the equation (a·b^2)/2, where a: length (longest diameter) and b: width (shortest diameter) were measured in mm by using digital caliper (Fowler Sylvac, S235PAT).
# (§10) Treatments producing >20% lethality and/or 20% net body weight loss were considered toxic.
# A2780 tumors = test: Human ovarian xenograft, tumor volume
# HGC27 tumors = test: Human gastric xenograft, tumor volume
# HT1080 tumors = test: Human fibrosarcoma xenograft, total diameter (tumor + leg)
# Experimental: as §7
# HT1080 cells were maintained in vitro at 37° C. with 5% CO2 in Minimum Essential Medium Eagle (MEME) (Sigma-Aldrich, Co). Each animal was orthotopically implanted into gastroecnemius muscle by an intramuscular injection using a 26G needle and a 1 cc syringe at 4-6 weeks of age, with 10×10^6 HT1080 cells, suspended in serum free medium, without antibiotics.
# as §8
# In xenograft studies with HT1080 cell line: • Total diameter (tumor+leg) measurements were determined by using digital caliper (Fowler Sylvac, S235PAT).
# as §10
# H460 tumors = test: Human lung (NSCLC) xenograft, tumor volume
# Experimental: as §7
# H460 cells were maintained in vitro at 37° C. with 5% CO2 in Dulbecco's Modified Eagle's Medium (Sigma-Aldrich, Co). Culture cells were passaged every 3 to 5 days upon reaching confluence. Each animal was subcutaneously implanted (on the right flank using 26G needle and a 1 cc syringe) at 4-6 weeks of age with 5×10^6 H460 cells suspended in 0.05 mL of a solution consisting of 50% Matrigel® (Corning Incorporated Life Sciences) and 50% medium without serum or antibiotics.
# as §8, §9, §10
# Tables and figures summarize the data obtained from complete experimental groups, i.e. those groups keeping the initial number of animals, n=8-10.
# [2] = test system: PSN1 cells (pancreas adenocarcinoma); test: cells; conditions: PSN1, SRB
# Excerpt: (§1) The aim of this assay is to evaluate the in vitro cytostatic (ability to delay or arrest tumor cell growth) or cytotoxic (ability to kill tumor cells) activity of the samples being tested.
# (§2) A colorimetric assay, using sulforhodamine B (SRB) reaction has been adapted to provide a quantitative measurement of cell growth and viability (following the technique described by Skehan et al. J. Natl. Cancer Inst. 1990, 82, 1107-1112). Another colorimetric assay based on 3-(4,5-Dimethylthiazol-2-yl)-2,5-diphenyltetrazolium bromide (MTT) reduction to a purple formazan has been also used to assess the antiproliferative activity (following the technique described by Mosmann et al. J. Immunol. Meth. 1983, 65, 55-63).
# (§3) These forms of assays employ 96-well cell culture microplates following the standards of the American National Standards Institute and the Society for Laboratory Automation and Screening (ANSI SLAS 1-2004 (R2012) Oct. 12, 2011. All the cell lines used in this study were obtained from the American Type Culture Collection (ATCC) and derive from different types of human cancer.
# (§4) A549, HT29, MDA-MB-231 and PSN1 cells were maintained in Dulbecco's Modified Eagle Medium (DMEM) while PC-3 and 22Rv1 cells were maintained in Roswell Park Memorial Institute Medium (RPMI). All cell lines were supplemented with 10% Fetal Bovine Serum (FBS), 2 mM L-glutamine, 100 U/mL penicillin, and 100 […] at 37° C., 5% CO2 and 98% humidity. For the experiments, cells were harvested from subconfluent cultures using trypsinization and resuspended in fresh medium before counting and plating.
# (§5) A549, HT29, MDA-MB-231 and PSN1 cells were seeded in 96 well microtiter plates, at 5000 cells per well in aliquots of 150 μL, and allowed to attach to the plate surface for 18 hours (overnight) in drug free medium. After that, one control (untreated) plate of each cell line was fixed (as described below) and used for time zero reference value. Culture plates were then treated with test compounds (50 μL aliquots of 4× stock solutions in complete culture medium plus 4% DMSO) using ten ⅖ serial dilutions (concentrations ranging from 10 to 0.003 μg/mL) and triplicate cultures (1% final concentration in DMSO). After 72 hours treatment, the antitumor effect was measured by using the SRB methodology: Briefly, cells were washed twice with PBS, fixed for 15 min in 1% glutaraldehyde solution at room temperature, rinsed twice in PBS, and stained in 0.4% SRB solution for 30 min at room temperature. Cells were then rinsed several times with 1% acetic acid solution and air-dried at room temperature.
# (§6) Effects on cell growth and survival were estimated by applying the NCI algorithm (Boyd M R and Paull K D. Drug Dev. Res. 1995, 34, 91-104). The values obtained in triplicate cultures were fitted by nonlinear regression to a four-parameters logistic curve by nonlinear regression analysis.
# [3] = test system: MDA-MB-231 cells (breast adenocarcinoma); test: cells; conditions: MDA-MB-231, SRB
# Excerpt: as §1, §2, §3, §4, §5, §6
# [4] = test system: A549 cells (lung carcinoma, NSCLC); test: cells; conditions: A549, SRB
# Excerpt: as §1, §2, §3, §4, §5, §6
# [5] = test system: HT29 cells (colorectal adenocarcinoma); test: cells; conditions: HT29, SRB
# Excerpt: as §1, §2, §3, §4, §5, §6
# [6] = total cell growth inhibition, 72 hours
# [7] = read-out: LC50, 50% net cell killing, 72 hours
compound,measurement,setting,value
COc1ccc2oc3c(c2c1)CCN[C@]31CS[C@@H]2c3c(OC(C)=O)c(C)c4c(c3[C@H](COC1=O)N1[C@@H]2[C@H]2c3c(cc(C)c(OC)c3O)C[C@@H]([C@@H]1O)N2C)OCO4 [Compound 35],MTMD,[1],0.25 mg/kg
COc1c(C)cc2c(c1O)[C@@H]1[C@@H]3[C@@H]4SC[C@]5(N[C@@H](CN)Cc6c5oc5ccccc65)C(=O)OC[C@@H](c5c6c(c(C)c(OC(C)=O)c54)OCO6)N3[C@@H](O)[C@H](C2)N1C [Compound 47-R],Median Tumor Volume,MDA-MB-231 tumors; Day 2,225.3 mm^3
same,Median Tumor Volume,MDA-MB-231 tumors; Day 5,323.2 mm^3
same,Median Tumor Volume,MDA-MB-231 tumors; Day 7,405.0 mm^3
same,Median Tumor Volume,MDA-MB-231 tumors; Day 9,495.9 mm^3
same,Median Tumor Volume,MDA-MB-231 tumors; Day 12,594.1 mm^3
same,Median Tumor Volume,MDA-MB-231 tumors; Day 14,769.5 mm^3
same,Median Tumor Volume,MDA-MB-231 tumors; Day 16,1009.5 mm^3
same,Median Tumor Volume,MDA-MB-231 tumors; Day 19,1298.0 mm^3
same,Median Tumor Volume,MDA-MB-231 tumors; Day 21,1580.7 mm^3
same,Median Tumor Volume,MDA-MB-231 tumors; Day 23,2006.5 mm^3
same,Median Tumor Volume,MDA-MB-231 tumors; Day 26,2032.1 mm^3
same,Median Tumor Volume,A2780 tumors; Day 2,280.6 mm^3
same,Median Tumor Volume,A2780 tumors; Day 5,653.9 mm^3
same,Median Tumor Volume,A2780 tumors; Day 7,848.7 mm^3
same,Median Tumor Volume,A2780 tumors; Day 9,1569.1 mm^3
same,Median Tumor Volume,A2780 tumors; Day 12,1764.0 mm^3
same,Median Tumor Volume,A2780 tumors; Day 14,1666.0 mm^3
same,Median Tumor Volume,A2780 tumors; Day 16,2025.0 mm^3
same,Median Tumor Volume,HGC27 tumors; Day 2,359.4 mm^3
same,Median Tumor Volume,HGC27 tumors; Day 5,774.8 mm^3
same,Median Tumor Volume,HGC27 tumors; Day 7,1155.4 mm^3
same,Median Tumor Volume,HGC27 tumors; Day 9,1474.7 mm^3
same,Median Tumor Volume,HGC27 tumors; Day 12,1870.2 mm^3
same,Median Tumor Volume,HGC27 tumors; Day 14,2031.3 mm^3
same,Median Tumor Volume,HGC27 tumors; Day 16,2075.2 mm^3
same,Total diameter (tumor + leg),HT1080 tumors; Day 2,8.9 mm
same,Total diameter (tumor + leg),HT1080 tumors; Day 5,10.1 mm
same,Total diameter (tumor + leg),HT1080 tumors; Day 7,10.5 mm
same,Total diameter (tumor + leg),HT1080 tumors; Day 9,11.5 mm
same,Total diameter (tumor + leg),HT1080 tumors; Day 12,13.5 mm
same,Total diameter (tumor + leg),HT1080 tumors; Day 14,13.9 mm
same,Total diameter (tumor + leg),HT1080 tumors; Day 16,14.6 mm
same,Total diameter (tumor + leg),HT1080 tumors; Day 19,18.0 mm
same,Median Tumor Volume,H460 tumors; Day 2,508.1 mm^3
same,Median Tumor Volume,H460 tumors; Day 5,979.3 mm^3
same,Median Tumor Volume,H460 tumors; Day 7,1280.0 mm^3
same,Median Tumor Volume,H460 tumors; Day 9,1543.1 mm^3
same,Median Tumor Volume,H460 tumors; Day 12,1764.0 mm^3
same,Median Tumor Volume,H460 tumors; Day 14,1845.5 mm^3
COc1c(C)cc2c(c1O)[C@@H]1[C@@H]3[C@@H]4SC[C@]5(N[C@H](C)Cc6c5[nH]c5ccccc65)C(=O)OC[C@@H](c5c6c(c(C)c(OC(C)=O)c54)OCO6)N3[C@@H](O)[C@H](C2)N1C [Compound C],Total diameter (tumor + leg),HT1080 tumors; Day 0,7.5 mm
same,Total diameter (tumor + leg),"HT1080 tumors; Day 0.0, iv Days 0, 7 and 14, compound C 3.0 mg/kg, 4-S […], 12-S […]",7.5 mm
same,Total diameter (tumor + leg),HT1080 tumors; Day 2,8.8 mm
same,Total diameter (tumor + leg),"HT1080 tumors; Day 2.0, iv Days 0, 7 and 14, compound C 3.0 mg/kg, 4-S […], 12-S […]",8.8 mm
same,Total diameter (tumor + leg),HT1080 tumors; Day 5,9.0 mm
same,Total diameter (tumor + leg),"HT1080 tumors; Day 5.0, iv Days 0, 7 and 14, compound C 3.0 mg/kg, 4-S […], 12-S […]",9.0 mm
same,Total diameter (tumor + leg),HT1080 tumors; Day 7,9.6 mm
same,Total diameter (tumor + leg),"HT1080 tumors; Day 7.0, iv Days 0, 7 and 14, compound C 3.0 mg/kg, 4-S […], 12-S […]",9.6 mm
same,Total diameter (tumor + leg),HT1080 tumors; Day 9,10.2 mm
same,Total diameter (tumor + leg),"HT1080 tumors; Day 9.0, iv Days 0, 7 and 14, compound C 3.0 mg/kg, 4-S […], 12-S […]",10.2 mm
same,Total diameter (tumor + leg),HT1080 tumors; Day 12,10.2 mm
same,Total diameter (tumor + leg),"HT1080 tumors; Day 12.0, iv Days 0, 7 and 14, compound C 3.0 mg/kg, 4-S […], 12-S […]",10.2 mm
same,Total diameter (tumor + leg),HT1080 tumors; Day 14,11.2 mm
same,Total diameter (tumor + leg),"HT1080 tumors; Day 14.0, iv Days 0, 7 and 14, compound C 3.0 mg/kg, 4-S […], 12-S […]",11.2 mm
same,Total diameter (tumor + leg),HT1080 tumors; Day 16,12.4 mm
same,Total diameter (tumor + leg),"HT1080 tumors; Day 16.0, iv Days 0, 7 and 14, compound C 3.0 mg/kg, 4-S […], 12-S […]",12.4 mm
same,Total diameter (tumor + leg),HT1080 tumors; Day 19,13.3 mm
same,Total diameter (tumor + leg),"HT1080 tumors; Day 19.0, iv Days 0, 7 and 14, compound C 3.0 mg/kg, 4-S […], 12-S […]",13.3 mm
same,Total diameter (tumor + leg),HT1080 tumors; Day 21,15.2 mm
same,Total diameter (tumor + leg),"HT1080 tumors; Day 21.0, iv Days 0, 7 and 14, compound C 3.0 mg/kg, 4-S […], 12-S […]",15.2 mm
same,Total diameter (tumor + leg),HT1080 tumors; Day 23,18.0 mm
same,Total diameter (tumor + leg),"HT1080 tumors; Day 23.0, iv Days 0, 7 and 14, compound C 3.0 mg/kg, 4-S […], 12-S […]",18.0 mm
same,GI50,[2]; 72 hours treatment,0.0364 µM
same,TGI,[2]; [6],4.42E−08 Molar
same,CC50,[2]; [7],0.065 µM
same,GI50,[3]; 72 hours treatment,0.026 µM
same,TGI,[3]; [6],5.46E−08 Molar
same,CC50,[3]; [7],> 0.13 µM
same,GI50,[4]; 72 hours treatment,0.0273 µM
same,TGI,[4]; [6],6.63E−08 Molar
same,CC50,[4]; [7],> 0.13 µM
same,GI50,[5]; 72 hours treatment,0.0208 µM
same,TGI,[5]; [6],2.34E−08 Molar
same,CC50,[5]; [7],> 0.13 µM
same,MTMD,[1],3.0 mg/kg
